Assay results from patent publication US20140370521A1, “IDENTIFICATION OF TWO NOVEL BIOMARKERS FOR NIEMANN-PICK DISEASE TYPE C” (The USA , as Represented by the Secretary, Department of …, priority 2011, published 2014).
“Also recorded” adds a separate entry of the source.

What was measured:
[1] = system: cathepsin D (CTSD); test: Serum cathepsin D (CTSD) by ELISA in NPC1 patients treated or not with miglustat; assay type: in vivo, human
Experimental: (§1) Since 60% of the patients were being treated with off-label miglustat, the effect of treatment on LGALS3 or CTSD concentrations were investigated. […] Since individual responses could be masked by the large degree of variation between patients, LGALS3 and CTSD concentrations were also assessed in serum samples from six patients before and after they begin the treatment.
(§2) The study was approved by the Eunice Kennedy Shriver National Institute of Child Health and Human Development Institutional Review Board. Informed consent and, when appropriate, assent were obtained. Serum samples were obtained from 16 male and 14 female NPC1 patients participating in a Natural History trial (06-CH-0186) and 16 control individuals of similar age and gender distribution. Mean age of patients and controls were 7.9±5.8 years old and 9.1±4.2 years old respectively (P-value=0.3720). Phenotypic severity was determined using the severity scale developed by Yanjanin et al., Am. J. Med. Genet. B. Neuropsychiatr. Genet. 153B:132-40 (2010), and ranged from 0 to 40. […]
(§3) Serum levels of cathepsin D (CTSD; EMD Millipore, Billerica, Mass.), and galectin-3 (LGALS3; R&D systems, Minneapolis, Minn.) were measured in triplicate by ELISA, following manufacturers' instructions. […]

[2] = NPC patients; Patterson et al., Lancet Neurol. 6:765-72 (2007); cited from earlier work
[3] = system: galectin-3 (LGALS3); test: Serum galectin-3 (LGALS3) by ELISA in NPC1 patients treated or not with miglustat; assay type: in vivo, human
Experimental: as §1, §2, §3

Compound: CCCCN1C[C@H](O)[C@@H](O)[C@H](O)[C@H]1CO [miglustat]
- CTSD concentrations in serum of NPC patients treated or not with miglustat ([1]; NPC1 patients, off-label miglustat versus untreated group, serum, FIG. 7C): No statistical difference; also recorded: no significant differences
- Effect of miglustat treatment on CTSD level, before versus after start of treatment ([1]; six patients, serum samples before and after beginning treatment, FIG. 7E): did not have any effect
- Efficacy in slowing the neurological progression of the disease [2]: has shown efficacy in slowing the neurological progression of the disease
- LGALS3 concentrations in serum of NPC patients treated or not with miglustat ([3]; NPC1 patients, off-label miglustat versus untreated group, serum, FIG. 7B): No statistical difference; also recorded: no significant differences
- Effect of miglustat treatment on LGALS3 level, before versus after start of treatment ([3]; six patients, serum samples before and after beginning treatment, FIG. 7D): did not have any effect
